Laboratory results reported in US20070093539A1, “N-hydroxy-4-(3-pheyl-5-methyl-isoxazole-4-yl)-benzenesulfonate solvates” (priority 2003, published 2007).

How the values were obtained:
[1] = tested on: isolated rabbit heart; assay: Cardiac effects on the isolated rabbit heart (Langendorff, coronary flow); design: species or system New Zealand white rabbits; coronary flow: unit not given here; conditions: for coronary flow % changing: versus basic value
Protocol: New Zealand white rabbits weighing 1.5-2 kg were used. The animals were exsanguinated and after thoracotomy the hearts were excised and mounted on a Langendorff-type perfusion apparatus. The hearts were perfused via the aorta with oxigenated, thermostated (37° C.) Krebs solution. A constant perfusion pressure of 80 cmH2O was applied. The test compounds were dissolved in the perfusion solution to obtain the requested concentrations.
The basic value of coronary flow was determined. Afterwards the small amount of compounds were added to perfusion liquid and the perfusion was measured for 30 minutes at every 10 minutes. Afterwards 30 minutes perfusion was performed without compound and the measure was repeated with the medium and high amount of compounds.
The effects of same concentration of valdecoxib and compound of example 1 were investigated in 4-4 hearts (1, 3 and 10 μM). Valdecoxib had no effect in either concentration. It can clearly be shown that the coronary flow was increased dose dependently. This effect is advantageous in practice of clinical therapy, because the painful arthritic and degenerative joint and bone deformations are emerged rather in old age, when diseases of the vascular system are also frequently encountered, which can conduce to disorder of vascular bed of the heart.

[2] = tested on: inflammatory mechanical allodynia induced by carrageenan; assay: Carrageenan-induced inflammatory mechanical allodynia (von Frey); format: in vivo, male Sprague-Dawley rats; conditions: 30 mg/kg p.o.
Protocol: The-threshold of pain of the animals was measured by von Frey apparatus (IITC, type: 1601 C). […] The values were registered in the times of the pick up or raises. During each measurment the threshold was determined at least thrice and the avarage was calculated from the peak values.
Male Sprague-Dawley rats (weighing 250-300 g) were used (n=5-6/group). 100 μl of saline solution of carrageenant (CA) was injected to the middle of the paw. The stimulus threshold was measured after it, and the treatment was completed with gastro-probe per os. The effects of the materials were measured in 30, 60, 90, 120 minutes after the treatments. The effects were compared for control group treatment with vehicle (solution of 2% Tween-80).
The effect was calculated as follows: [formula] where tx=30, 60, 90, 120 min
In the acute pain model the analgesic effects of the valdecoxib and compound of example 1 were considerable with dose of 30 mg/kg p.o. once.

[3] = tested on: carrageenan and kaolin induced monoarthritis; assay: Carrageenan and kaolin induced monoarthritis model (incapacitance test); format: in vivo, rats; conditions: 10 mg/kg p.o.
Protocol: The Incapacitance tester is an apparatus for measure the changes of the functional parameters induced of the pain, which can register the bearing on the hind limb, the amount of the moving and the changing of the centre of gravity. Knee-joint of the right-back limb was treated with solution of 100 μl 2% carrageenan and kaolin. During 3-4 hours after the treatment arthritis was emerged in the capsular ligament of the treated limb. This inflammation still exists at 24 hours after the treatment. Because of the pain the animals coddles the treated limbs, thy weign on it less. Change of weight load is measurable with Incapacitance tester device in grams. The incapacitance was calculated as follows: [formula] Analgesic-antiinflammantory compounds could increase the stimulus threshold of the knee-joint, and consequently to improve the functional parameters of the limb. Measure of this can be counted by the decrease of the loading of left leg i.e. in terms of percentage of reversal. [formula] The Incapacitance induced by administration of irritants in left paw was measured at 4 hour after the injection. Afterwards the animals (n=24-32/group) were. orally treated with dose of 10 mg/kg valdecoxib and test compounds. Measurements were done at 1 and 2 hours after the treatments.

Substance: N-hydroxi-4-(3-phenyl-5-methyl-isoxazole-4-yl)-benzenesulfonamide monohydrate [example 1]
- coronary flow ([1]; 1 μM, 10 minutes of treatment): 40.0 ± 3.3
- coronary flow % changing ([1]; 1 μM, 10 minutes): 16.6%
- coronary flow ([1]; 1 μM, 20 minutes of treatment): 39.0 ± 3.0
- coronary flow % changing ([1]; 1 μM, 20 minutes): 13.7%
- coronary flow ([1]; 1 μM, 30 minutes of treatment): 37.5 ± 2.4
- coronary flow % changing ([1]; 1 μM, 30 minutes): 9.3%
- coronary flow ([1]; 3 μM, 10 minutes of treatment): 37.3 ± 2.3
- coronary flow % changing ([1]; 3 μM, 10 minutes): 24.3%
- coronary flow ([1]; 3 μM, 20 minutes of treatment): 37.5 ± 1.7
- coronary flow % changing ([1]; 3 μM, 20 minutes): 25.0%
- coronary flow ([1]; 3 μM, 30 minutes of treatment): 38.8 ± 1.3
- coronary flow % changing ([1]; 3 μM, 30 minutes): 26.0%
- coronary flow ([1]; 10 μM, 10 minutes of treatment): 45.8 ± 2.5
- coronary flow % changing ([1]; 10 μM, 10 minutes): 63.6%
- coronary flow ([1]; 10 μM, 20 minutes of treatment): 48.3 ± 4.8
- coronary flow % changing ([1]; 10 μM, 20 minutes): 72.5%
- coronary flow ([1]; 10 μM, 30 minutes of treatment): 49.0 ± 4.8
- coronary flow % changing ([1]; 10 μM, 30 minutes): 75.0%
- effect on coronary flow (in words) ([1]; 1, 3 and 10 μM, 4-4 hearts): positive effect
- Analgesic effect in % after p.o. treatment ([2]; 30 min.): 61.6%
- Analgesic effect in % after p.o. treatment ([2]; 1 hour): 57.1%
- Analgesic effect in % after p.o. treatment ([2]; 1.5 hour): 44.5%
- Analgesic effect in % after p.o. treatment ([2]; 2 hours): 41.5%
- Analgesic effect (% reversal) after p.o. treatment ([3]; 1 hour): 63.2 % reversal
- Analgesic effect (% reversal) after p.o. treatment ([3]; 2 hours): 76.9 % reversal
